Measurements as given in patent US11083696B2, “Dispersion anaesthetic device” (UNIVERSITY COLLEGE CARDIFF CONSULTANTS LIMITED, priority 2011, dated 2021).

Experiments:
[1] = test system: reaction to a standard surgical stimulus (skin incision); details: average adult male at age 40 years; 1 atmosphere; cited from earlier work
[2] = Gelation of liquid anaesthetics by gelators (heat-cool cycles, inversion); assay type: physicochemical
Experimental: […] The solubility of the gelator at room temperature was observed by visual inspection, and samples subjected to a series of heat-cool cycles (hot ˜60° C., cold ˜5° C.) until solubility of the gelator was complete (or ceased to improve) and a clear gel was formed on cooling. A final heating cycle was carried out and the samples allowed to cool slowly to room temperature (cooling rate uncontrolled). […] Further inspection was carried out after 24 hours, and no difference in results was observed. On storage, sealed samples remain gelled for at least 12 months.
A series of gelators were investigated with chain lengths […] corresponding to gelators G3-G8.

[3] = Release into carrier gas, testing chamber 1 (60 ml glass jar, anaesthetic monitor); assay type: physicochemical; details: for Sevo % @ 30 s / time to 0% Sevo/s: HPFP only, No N2 flow
Experimental: Specifically, a 60 ml glass jar fitted with septum, N2 inlet and 1 ml syringe (open to air). Typically tests used a 3 ml sample or equivalent with respect to anaesthetic content. Headspace concentrations were sampled from gas flow out (no recirculation) and measured with a standard anaesthetic monitor using a balloon to provide a nitrogen atmosphere or with or 2 L min^−1 N2 passed over or bubbled through sample;
The formulations described in Tables 1-4 were tested using testing chamber 1, the experimental set-up for which is described in FIG. 1a, by addition of an appropriate quantity of formulation to a 60 ml glass jar fitted with septum, N2 inlet and (needle free) 1 ml syringe (open to air) via a plastic tube from within which the outflow gas was continuously sampled and monitored for anaesthetic concentration. Typically a 3 ml sample was used, or an equivalent amount with respect to anaesthetic content. A balloon was used to provide a nitrogen atmosphere with no flow-through, or a continuous flow of nitrogen as a carrier gas was passed over or bubbled through the sample at a controlled flow-rate. Headspace fluorocarbon concentrations were sampled from gas outflow (no recirculation) and measured using a standard anaesthetic monitor (Capnomac Ultima, Datex Instrumentarium Inc., Heslinki, Finland), monitoring on either sevoflurane or isoflurane settings, depending on the anaesthetic in the formulation.

[4] = 1 wt % gelator after 2x heat-cool cycling
[5] = 1st value column (amount equivalent to J1)
[6] = 3rd value column (amount equivalent to J5)

Structure (SMILES): FC(F)OC(Cl)C(F)(F)F (stereo not shown) [isoflurane]
- MAC value of 1 (release level) [1]: 1.2 volume %

Structure (SMILES): CC(C)OC(=O)[C@@H](O)[C@H](O)CCCCCCCC[C@@H](O)[C@H](O)C(=O)OC(C)C (racemic) [G4]
- gelation of sevoflurane at lower gelator concentration ([2]; 0.1 wt % gelator): without success
- Gel state of anaesthetic: Desfluorane [2, 4]: Yes
- Gel state of anaesthetic: Isoflurane [2, 4]: No^†
- Gel state of anaesthetic: Sevoflurane [2, 4]: Good gels and Yes
- gel state of isoflurane ([2]; 1.5 wt % gelator): partially gelled
- gel state of isoflurane ([2]; 2, 3, and 5 wt % gelator): gels and stable isoflurane gels were obtained

Structure (SMILES): FCOC(C(F)(F)F)C(F)(F)F [sevoflurane]
- time of drop to zero anaesthetic concentration ([3]; 3 ml sevoflurane, 2 L min^−1): 15 to 16 min
- plateau sevoflurane concentration in carrier gas ([3]; 3 ml sevoflurane, 2 L min^−1 carrier gas): ~13%
- anaesthetic concentration in the carrier gas outflow stream ([3]; first 10 minutes, 3 ml sevoflurane, 2 L min^−1 through headspace): 13-15%
- MAC value of 1 (release level) [1]: 2 volume %

Structure (SMILES): FC(F)OC(F)(F)C(F)Cl (stereo not shown) [enflurane]
- MAC value of 1 (release level) [1]: 1.6 volume %

Structure (SMILES): FC(C(F)C(F)(F)C(F)(F)F)C(F)(F)F (stereo not shown) [HPFP, 2H, 3H-perfluoropentane]
- Time to 0% sevoflurane/s ([3]; 2 l min−1 N2 Over sample, 3 ml HPFP): 220 s
- sevoflurane % @ 30 s ([3]; 2 l min−1 N2 Over sample, 3 ml HPFP, monitored as sevoflurane): 1.6%
- Time to 0% sevoflurane/s ([3]; 2 l min−1 N2 through sample, 3 ml HPFP): <220 s
- Sevo % @ 30 s [3, 5]: 1.9%
- time to 0% Sevo/s [3, 5]: 135 s
- Sevo % @ 30 s ([3]; 2nd value column (equivalent formulation unclear)): 2.0%
- time to 0% Sevo/s ([3]; 2nd value column): 140 s
- Sevo % @ 30 s [3, 6]: 2.8%
- time to 0% Sevo/s [3, 6]: 335 s
- Sevo % @ 30 s ([3]; 4th value column (equivalent formulation unclear)): 2.9%
- time to 0% Sevo/s ([3]; 4th value column): 900 s

Structure (SMILES): FC(F)(F)C(Cl)Br (stereo not shown) [halothane]
- MAC value of 1 (release level) [1]: 0.76 volume %

Structure (SMILES): FC(F)OC(F)C(F)(F)F (stereo not shown) [desflurane]
- MAC value of 1 (release level) [1]: 6 volume %
